Patent US11806393B2, “Flavivirus peptide sequences, epitopes, and methods and uses thereof” (priority 2017, dated 2023)

tested on: CD8+ T cells; assay: IFNγ-ELISPOT of predicted H-2b-binding ZIKV peptides; assay type: cell-based, mouse; conditions: CD8+ T cells of mice infected with MR766 or FSS13025, day 7; positive: SFC per 10^6 CD8+ T cells ≥20 and stimulation index ≥2
Experimental: CD8^+ T cells were isolated by magnetic bead positive selection (Miltenyi Biotec, Germany). A total of 2×10^5 CD8^+ T cells were stimulated with 1×10^5 LPS-blast cells as antigen presenting cells (APCs) and 10 μg of individual ZIKV-derived peptide in 96-well flat-bottom plates (IMMOBILON™-P; Millipore, MA) coated with anti-mouse IFNγ monoclonal antibody (mAb) (clone AN18; Mabtech, Sweden) in triplicate. IFNγ-ELISPOT was performed as previously detailed (Elong Ngono et al., 2016). Positive peptides were those with a number of spot-forming cells (SFC) per 10^6 CD8^+ T cells ≥20 and a stimulation index ≥2 based on the negative control (DMSO). […]
The following results are with reference to FIG. 3A and FIG. 3B, where five-week-old LysMCre^+IFNAR^fl/fl were infected retro-orbitally with 10^4 FFU of ZIKV MR766 or FSS13025. […] A total of 244 peptides from ZIKV strains predicted to bind H-2Kb and H-2db with high affinity were screened. Two independent experiments for each ZIKV strain (n=5 mice for each experiment) were performed in triplicate per peptide. The data are expressed as the mean of spot forming cells (SFC) per 10^6 CD8^+ T cells, and error bars are represented as SEM. One-way ANOVA was used to compare the mean of each peptide with the control (DMSO) ([…]). […] The dotted line corresponds to the average amount of IFNγ produced by MOCK mice when stimulated with positive ZIKV-derived peptides (0.19% of IFNγ+CD8^+ T cells).

Substance	Strains (ZIKV strain for which the peptide induced a positive T cell response, IFNγ-ELISPOT)
1 (AAFTFTKV) [compound 1]	MR766
2 (AAGAWYVYV) [compound 2]	MR766
3 (ISFATTLGV) [compound 3]	MR766
4 (MSYECPML) [compound 4]	MR766
5 (PSVRNGNEI) [compound 5]	MR766
6 (RAIWYMWL) [compound 6]	MR766
7 (RQVMNIVSSWL) [compound 7]	MR766
8 (SSIAARGYI) [compound 8]	MR766
9 (SSLVNGVVRL) [compound 9]	MR766
10 (SSWLWKEL) [compound 10]	MR766
11 (TGWSNWEEV) [compound 11]	MR766
12 (TTVSNMAEV) [compound 12]	MR766
13 (VMIFLSTAV) [compound 13]	MR766
14 (YSLECDPAVI) [compound 14]	MR766
15 (AAFTFTKI) [compound 15]	FSS
16 (SSLINGVVRL) [compound 16]	FSS
17 (TLGMNKCYI) [compound 17]	FSS
18 (IMVAVGLL) [compound 18]	MR766/FSS
19 (ATMSYECPM) [compound 19]	MR766/FSS
20 (CAEAPNMKVI) [compound 20]	MR766/FSS
21 (IGVSNRDFV) [compound 21]	MR766/FSS
22 (MAVDMQTLTPV) [compound 22]	MR766/FSS
23 (RMAVLGDTA) [compound 23]	MR766/FSS
24 (RSYCYEASI) [compound 24]	MR766/FSS
